Test: State (liquid or solid) at ambient temperature by visual observation
Type: physicochemical
Conditions: for State at standard temperature: Table 1; for liquid or solid at ambient temperature: ambient temperature (about 15-25° C.), visual observation
Method: The compounds (1)-(3) of the present invention are desirably liquid at ambient temperature. In the present specification, the ambient temperature refers to the ambient temperature (15° C.-25° C.) defined in the Japanese Pharmacopoeia, 16th edition, General Rules, the Japanese Pharmacopoeia, 17th edition, General Rules. In addition, “about” here means ±1° C.
Whether the compounds of Examples 1 and 2 and HYA of Comparative Example are liquid or solid at ambient temperature (about 15-25° C.) was confirmed by visual observation.

SMILES	State at standard temperature	liquid or solid at ambient temperature
CCCCC/C=C\CC(O)CCCCCCCCC(=O)O (stereo not drawn) [HYA, 10-hydroxy-cis-12-octadecenoic acid]	solid	solid
CCCCC/C=C\CC(O)CCCCCCCCC(=O)OCCC (stereo not drawn) [Example 2, propyl 10-hydroxy-cis-12-octadecenoate]		liquid
CCCCC/C=C\CC(O)CCCCCCCCC(=O)OCC (stereo not drawn) [Example 1, ethyl 10-hydroxy-cis-12-octadecenoate]	liquid	liquid
